Source: ChEMBL document CHEMBL5653631, “A Potent and Selective ULK1 Inhibitor Suppresses Autophagy and Sensitizes Cancer Cells to Nutrient Stress” (iScience, 2018)
Each block holds one compound with its values, some of them ahead of it.

How the values were obtained:
[1] = target: Casein kinase I isoform gamma-3 (Homo sapiens) (UniProt Q9Y6M4); experiment: Inhibition of human recombinant CK1g3 at 500 nM in presence of ATP by radiometric assay relative to control
[2] = target: G protein-coupled receptor kinase 6 (Homo sapiens) (UniProt P43250); experiment: Inhibition of human recombinant GPRK6 at 500 nM in presence of ATP by radiometric assay relative to control
[3] = target: Mitogen-activated protein kinase 14 (Homo sapiens) (UniProt Q16539); experiment: Inhibition of human recombinant p38alpha at 500 nM related to control ULK1
[4] = target: Protein kinase C gamma type (Homo sapiens) (UniProt P05129); experiment: Inhibition of human recombinant PKCg at 500 nM in presence of ATP by radiometric assay relative to control
[5] = target: T1, Testis-specific serine/threonine-protein kinase 2 (Homo sapiens) (UniProt Q96PF2); experiment: Inhibition of human recombinant TSSK2 at 500 nM in presence of ATP by radiometric assay relative to control
T1 sequence (whole entry): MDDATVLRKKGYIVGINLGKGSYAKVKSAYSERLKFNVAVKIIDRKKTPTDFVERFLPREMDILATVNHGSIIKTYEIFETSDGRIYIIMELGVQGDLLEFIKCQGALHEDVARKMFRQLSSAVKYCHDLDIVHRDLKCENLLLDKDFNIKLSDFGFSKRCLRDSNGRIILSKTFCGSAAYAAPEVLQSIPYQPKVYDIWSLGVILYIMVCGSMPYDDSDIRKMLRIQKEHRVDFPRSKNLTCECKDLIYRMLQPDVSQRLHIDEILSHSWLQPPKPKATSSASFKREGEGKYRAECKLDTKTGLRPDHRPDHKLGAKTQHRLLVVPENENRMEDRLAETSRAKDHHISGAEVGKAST

[6] = target: T2, Testis-specific serine/threonine-protein kinase 3 (Homo sapiens) (UniProt Q96PN8); experiment: Inhibition of human recombinant TSSK3 at 500 nM in presence of ATP by radiometric assay relative to control
T2 sequence (whole entry): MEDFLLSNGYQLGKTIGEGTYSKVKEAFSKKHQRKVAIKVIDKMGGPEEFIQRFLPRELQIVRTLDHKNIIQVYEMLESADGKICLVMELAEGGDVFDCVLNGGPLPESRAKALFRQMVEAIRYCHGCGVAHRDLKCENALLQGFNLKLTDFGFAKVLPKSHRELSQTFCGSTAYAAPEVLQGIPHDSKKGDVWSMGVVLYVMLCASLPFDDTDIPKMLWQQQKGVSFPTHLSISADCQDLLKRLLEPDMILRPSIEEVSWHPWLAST

[7] = target: Protein kinase C alpha type (Homo sapiens) (UniProt P17252); experiment: Inhibition of human recombinant PKCa at 500 nM in presence of ATP by radiometric assay relative to control
[8] = target: Serine/threonine-protein kinase/endoribonuclease IRE1 (Homo sapiens) (UniProt O75460); experiment: Inhibition of human recombinant IRE1 at 15 nM related to control ULK1
Serine/threonine-protein kinase/endoribonuclease IRE1 (Homo sapiens), sequence (O75460 19-977 limits assumed): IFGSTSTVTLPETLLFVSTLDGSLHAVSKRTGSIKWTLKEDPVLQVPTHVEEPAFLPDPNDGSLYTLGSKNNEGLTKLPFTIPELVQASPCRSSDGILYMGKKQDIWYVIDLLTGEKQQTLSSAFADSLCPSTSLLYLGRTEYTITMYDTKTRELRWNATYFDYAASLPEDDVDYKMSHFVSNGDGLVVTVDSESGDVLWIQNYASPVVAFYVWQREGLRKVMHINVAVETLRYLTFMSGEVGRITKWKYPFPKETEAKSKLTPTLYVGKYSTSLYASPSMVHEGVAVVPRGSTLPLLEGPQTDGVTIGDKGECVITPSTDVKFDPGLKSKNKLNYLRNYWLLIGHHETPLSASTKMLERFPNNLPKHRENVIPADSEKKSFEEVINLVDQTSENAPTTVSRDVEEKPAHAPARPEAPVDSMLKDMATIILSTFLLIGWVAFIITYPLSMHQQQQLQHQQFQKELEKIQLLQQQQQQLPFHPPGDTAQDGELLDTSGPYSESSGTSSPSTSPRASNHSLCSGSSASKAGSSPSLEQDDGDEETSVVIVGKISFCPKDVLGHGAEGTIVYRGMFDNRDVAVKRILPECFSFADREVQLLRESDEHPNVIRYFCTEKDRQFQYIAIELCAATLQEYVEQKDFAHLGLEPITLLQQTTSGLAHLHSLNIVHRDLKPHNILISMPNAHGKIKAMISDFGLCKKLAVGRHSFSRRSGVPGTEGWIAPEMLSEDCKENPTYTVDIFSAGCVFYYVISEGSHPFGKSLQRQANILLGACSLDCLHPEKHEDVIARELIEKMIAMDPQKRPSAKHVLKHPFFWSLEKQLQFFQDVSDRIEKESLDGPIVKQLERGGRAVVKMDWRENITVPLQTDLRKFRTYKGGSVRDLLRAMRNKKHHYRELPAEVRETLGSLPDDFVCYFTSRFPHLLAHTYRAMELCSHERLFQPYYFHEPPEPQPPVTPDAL

[9] = target: Ribosomal protein S6 kinase alpha-5 (Homo sapiens) (UniProt O75582); experiment: Inhibition of human recombinant MSK1 at 15 nM related to control ULK1
Ribosomal protein S6 kinase alpha-5 (Homo sapiens), sequence (O75582 whole entry, looked up): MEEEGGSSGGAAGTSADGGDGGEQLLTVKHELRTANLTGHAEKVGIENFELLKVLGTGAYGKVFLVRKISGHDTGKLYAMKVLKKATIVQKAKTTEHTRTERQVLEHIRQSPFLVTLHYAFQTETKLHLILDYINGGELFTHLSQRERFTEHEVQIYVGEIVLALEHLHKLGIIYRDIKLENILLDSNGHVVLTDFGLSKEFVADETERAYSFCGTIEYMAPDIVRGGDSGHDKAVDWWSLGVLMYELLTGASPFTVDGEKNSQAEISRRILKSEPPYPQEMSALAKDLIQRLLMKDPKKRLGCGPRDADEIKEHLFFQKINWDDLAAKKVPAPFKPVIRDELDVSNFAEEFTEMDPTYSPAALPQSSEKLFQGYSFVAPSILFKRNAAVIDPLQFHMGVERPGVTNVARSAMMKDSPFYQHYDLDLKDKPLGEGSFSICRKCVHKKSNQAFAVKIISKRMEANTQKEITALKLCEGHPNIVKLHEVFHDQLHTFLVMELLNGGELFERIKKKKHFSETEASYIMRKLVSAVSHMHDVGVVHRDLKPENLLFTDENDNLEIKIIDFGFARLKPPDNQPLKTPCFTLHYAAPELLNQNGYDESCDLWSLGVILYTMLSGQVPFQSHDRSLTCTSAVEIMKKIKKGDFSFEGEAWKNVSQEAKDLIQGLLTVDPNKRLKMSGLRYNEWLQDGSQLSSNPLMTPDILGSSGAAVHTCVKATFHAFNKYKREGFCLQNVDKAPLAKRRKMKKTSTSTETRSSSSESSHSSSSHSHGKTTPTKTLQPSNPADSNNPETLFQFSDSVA

[10] = target: Dual specificity protein kinase CLK4 (Homo sapiens) (UniProt Q9HAZ1); experiment: Inhibition of human recombinant CLK4 at 15 nM in presence of ATP by radiometric assay relative to control
[11] = target: Casein kinase I isoform gamma-2 (Homo sapiens) (UniProt P78368); experiment: Inhibition of human recombinant CK1g2 at 15 nM in presence of ATP by radiometric assay relative to control
Casein kinase I isoform gamma-2 (Homo sapiens), sequence (P78368 whole entry, looked up, canonical isoform): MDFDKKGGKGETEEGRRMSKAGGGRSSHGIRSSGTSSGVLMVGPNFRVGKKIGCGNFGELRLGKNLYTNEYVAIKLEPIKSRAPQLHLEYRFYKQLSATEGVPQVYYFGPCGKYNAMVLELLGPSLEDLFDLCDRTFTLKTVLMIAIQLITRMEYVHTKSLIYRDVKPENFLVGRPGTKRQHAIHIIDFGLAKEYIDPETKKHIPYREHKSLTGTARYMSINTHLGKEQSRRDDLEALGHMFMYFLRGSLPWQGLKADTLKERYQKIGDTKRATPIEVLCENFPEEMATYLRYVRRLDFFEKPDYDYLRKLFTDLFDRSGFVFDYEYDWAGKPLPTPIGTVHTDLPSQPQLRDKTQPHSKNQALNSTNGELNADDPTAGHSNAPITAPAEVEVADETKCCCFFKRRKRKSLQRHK

[12] = target: Serine/threonine-protein kinase Nek6 (Homo sapiens) (UniProt Q9HC98); experiment: Inhibition of human recombinant NEK6 at 15 nM related to control ULK1
Serine/threonine-protein kinase Nek6 (Homo sapiens), sequence (Q9HC98 whole entry): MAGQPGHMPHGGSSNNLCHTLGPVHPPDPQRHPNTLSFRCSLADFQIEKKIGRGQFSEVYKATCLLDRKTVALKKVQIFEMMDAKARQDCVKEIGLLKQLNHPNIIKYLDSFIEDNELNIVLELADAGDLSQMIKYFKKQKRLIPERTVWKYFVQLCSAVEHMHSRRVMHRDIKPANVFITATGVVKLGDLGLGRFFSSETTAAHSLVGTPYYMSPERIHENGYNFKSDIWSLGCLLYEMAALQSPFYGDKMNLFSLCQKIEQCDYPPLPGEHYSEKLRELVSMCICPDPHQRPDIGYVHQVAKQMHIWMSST

[13] = target: Calcium/calmodulin-dependent protein kinase type II subunit gamma (Homo sapiens) (UniProt Q13555); experiment: Inhibition of human recombinant CaMK2g at 40 nM related to control ULK1
[14] = target: Tyrosine-protein kinase JAK2 (Homo sapiens) (UniProt O60674); experiment: Inhibition of human recombinant JAK2 at 40 nM related to control ULK1
Tyrosine-protein kinase JAK2 (Homo sapiens), sequence (O60674 whole entry): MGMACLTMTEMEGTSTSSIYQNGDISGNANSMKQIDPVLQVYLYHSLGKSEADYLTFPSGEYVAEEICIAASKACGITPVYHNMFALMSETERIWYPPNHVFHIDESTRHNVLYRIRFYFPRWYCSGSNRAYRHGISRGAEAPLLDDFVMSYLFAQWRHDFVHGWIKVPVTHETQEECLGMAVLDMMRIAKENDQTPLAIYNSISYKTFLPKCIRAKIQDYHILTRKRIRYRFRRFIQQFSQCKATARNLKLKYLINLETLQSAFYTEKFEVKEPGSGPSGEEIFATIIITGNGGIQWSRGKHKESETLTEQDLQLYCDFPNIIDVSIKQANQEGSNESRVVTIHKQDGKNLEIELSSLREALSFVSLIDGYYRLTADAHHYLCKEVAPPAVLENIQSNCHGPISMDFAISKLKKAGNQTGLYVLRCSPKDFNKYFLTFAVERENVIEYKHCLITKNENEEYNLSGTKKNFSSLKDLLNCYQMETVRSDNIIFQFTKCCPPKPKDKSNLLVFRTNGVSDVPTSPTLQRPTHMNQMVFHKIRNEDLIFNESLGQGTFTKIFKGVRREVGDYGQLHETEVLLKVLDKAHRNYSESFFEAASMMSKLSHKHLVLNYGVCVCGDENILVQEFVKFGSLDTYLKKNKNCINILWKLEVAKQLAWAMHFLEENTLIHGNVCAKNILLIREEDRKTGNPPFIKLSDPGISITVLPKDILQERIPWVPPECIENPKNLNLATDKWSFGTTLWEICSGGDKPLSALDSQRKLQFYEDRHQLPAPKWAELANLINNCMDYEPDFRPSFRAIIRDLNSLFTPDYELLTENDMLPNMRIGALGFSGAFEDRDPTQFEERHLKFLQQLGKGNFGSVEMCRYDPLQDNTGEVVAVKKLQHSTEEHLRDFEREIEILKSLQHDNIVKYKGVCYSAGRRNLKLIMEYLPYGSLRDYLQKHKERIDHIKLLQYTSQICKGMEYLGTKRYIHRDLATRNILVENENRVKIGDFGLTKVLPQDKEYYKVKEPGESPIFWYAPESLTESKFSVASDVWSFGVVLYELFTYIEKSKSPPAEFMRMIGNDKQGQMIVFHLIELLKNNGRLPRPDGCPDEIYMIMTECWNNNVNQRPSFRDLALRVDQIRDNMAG

[15] = target: T3, TGF-beta receptor type-1 (Homo sapiens) (UniProt P36897); experiment: Inhibition of human recombinant TGFbR1 at 40 nM related to control ULK1
T3 sequence (whole entry): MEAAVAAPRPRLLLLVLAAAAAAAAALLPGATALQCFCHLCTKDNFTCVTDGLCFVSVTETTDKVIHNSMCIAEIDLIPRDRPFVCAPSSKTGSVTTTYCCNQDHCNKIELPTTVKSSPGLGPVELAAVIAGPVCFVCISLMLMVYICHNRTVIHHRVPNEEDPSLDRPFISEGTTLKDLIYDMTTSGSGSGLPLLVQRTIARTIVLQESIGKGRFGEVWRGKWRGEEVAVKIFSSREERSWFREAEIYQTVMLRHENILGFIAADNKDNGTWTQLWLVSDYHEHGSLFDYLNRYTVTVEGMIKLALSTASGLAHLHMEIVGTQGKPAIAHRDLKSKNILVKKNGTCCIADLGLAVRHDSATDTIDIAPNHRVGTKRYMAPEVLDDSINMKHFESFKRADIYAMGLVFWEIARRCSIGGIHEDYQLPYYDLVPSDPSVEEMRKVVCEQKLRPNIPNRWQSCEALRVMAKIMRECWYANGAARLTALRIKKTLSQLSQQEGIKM

[16] = target: MAP/microtubule affinity-regulating kinase 3 (Homo sapiens) (UniProt P27448); experiment: Inhibition of human recombinant MARK3 at 40 nM in presence of ATP by radiometric assay relative to control
MAP/microtubule affinity-regulating kinase 3 (Homo sapiens), sequence (P27448 whole entry, looked up): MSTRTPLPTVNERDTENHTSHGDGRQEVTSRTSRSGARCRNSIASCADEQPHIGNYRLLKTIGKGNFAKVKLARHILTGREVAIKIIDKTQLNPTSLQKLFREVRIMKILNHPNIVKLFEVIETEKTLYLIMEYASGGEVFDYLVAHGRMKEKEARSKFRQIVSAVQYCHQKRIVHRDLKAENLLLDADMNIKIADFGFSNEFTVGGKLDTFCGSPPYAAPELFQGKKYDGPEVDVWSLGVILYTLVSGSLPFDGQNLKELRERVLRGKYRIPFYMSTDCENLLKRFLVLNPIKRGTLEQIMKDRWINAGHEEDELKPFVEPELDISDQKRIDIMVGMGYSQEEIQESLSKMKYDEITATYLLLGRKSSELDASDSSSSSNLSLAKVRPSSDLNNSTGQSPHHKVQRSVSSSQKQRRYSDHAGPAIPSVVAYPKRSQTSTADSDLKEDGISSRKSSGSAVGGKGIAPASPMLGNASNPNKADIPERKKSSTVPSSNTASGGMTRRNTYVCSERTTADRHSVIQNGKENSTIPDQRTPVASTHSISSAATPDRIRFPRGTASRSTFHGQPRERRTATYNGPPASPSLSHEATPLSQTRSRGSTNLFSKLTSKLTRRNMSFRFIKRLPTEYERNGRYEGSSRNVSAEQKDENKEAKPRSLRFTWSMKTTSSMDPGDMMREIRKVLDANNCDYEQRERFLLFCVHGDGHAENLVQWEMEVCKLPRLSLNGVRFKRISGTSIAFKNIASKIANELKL

[17] = target: Serine/threonine-protein kinase PAK 5 (Homo sapiens) (UniProt Q9P286); experiment: Inhibition of human recombinant PAK5 at 40 nM related to control ULK1
[18] = target: Epithelial discoidin domain-containing receptor 1 (Homo sapiens) (UniProt Q08345); experiment: Inhibition of human recombinant DDR1 at 40 nM related to control ULK1
[19] = target: T4, Serine/threonine-protein kinase Sgk2 (Homo sapiens) (UniProt Q9HBY8); experiment: Inhibition of human recombinant SGK2 at 40 nM related to control ULK1
T4 sequence (whole entry): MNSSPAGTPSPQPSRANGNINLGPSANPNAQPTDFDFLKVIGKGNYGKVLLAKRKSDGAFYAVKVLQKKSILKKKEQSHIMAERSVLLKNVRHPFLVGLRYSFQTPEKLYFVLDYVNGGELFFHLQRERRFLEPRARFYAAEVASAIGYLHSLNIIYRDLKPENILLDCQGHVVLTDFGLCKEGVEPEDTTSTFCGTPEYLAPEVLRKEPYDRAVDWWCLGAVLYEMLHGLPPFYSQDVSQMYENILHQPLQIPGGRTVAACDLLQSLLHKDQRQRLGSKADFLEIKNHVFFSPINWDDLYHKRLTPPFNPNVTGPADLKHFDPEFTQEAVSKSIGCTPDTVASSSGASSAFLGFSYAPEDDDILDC

[20] = target: Protein kinase C gamma type (Homo sapiens) (UniProt P05129); experiment: Inhibition of human recombinant PKCg at 40 nM related to control ULK1

inhibition [1]: 0%
inhibition [2]: 12%
fold change (FC) [3]: 0.07
inhibition [4]: 9%
inhibition [5]: 2%
inhibition [6]: 0%
inhibition [7]: 0%
Structure (SMILES): CNC(=O)c1ccccc1Oc1nc(Nc2cc(OC)c(OC)c(OC)c2)ncc1Br

fold change (FC) [8]: 0
fold change (FC) [9]: 0.02
inhibition [10]: 83%
inhibition [11]: 0%
fold change (FC) [12]: 0.01
Structure (SMILES): CC(C)[C@H](NC(=O)c1cc(-c2cnn3cc(-c4ccc(OCCN5CCCCC5)cc4)cnc23)cs1)C(F)(F)F

fold change (FC) [13]: 0.01
fold change (FC) [14]: 0
fold change (FC) [15]: 0
inhibition [16]: 15%
fold change (FC) [17]: 0
fold change (FC) [18]: 0.25
fold change (FC) [19]: 0.16
fold change (FC) [20]: 0
Structure (SMILES): O=C(N[C@@H](C1CC1)C(F)(F)F)c1cc(-c2cnn3cc(-c4ccc(F)cc4)cnc23)cs1
